# Data: patent US20210115494A1, “Improved method for measurement of microbial biomass” (Mycometer A/S, priority 2018, published 2021)
# What was measured:
# [1] = tested on: NAHA activity from Graham-flour; assay: NAHA activity assay (4-methylumbelliferyl N-acetyl-β-D-glucosaminide, fluorescence), Graham-flour; type: biochemical; conditions: Graham-flour, 30 min
# Protocol: (§1) In order to determine NAHA activity in different samples, the technology in WO 98/033934 was employed: A sample containing a dried or freeze dried organism is added to a buffer solution containing 4-Methylumbelliferyl N-acetyl-β-D-glucosaminide in a concentration of 20 μM. The reaction-time is varied depending on the ambient temperature and according to a reaction-time/temperature data sheet previously developed for fungal NAHA activity at various temperatures, and is 30 minutes at 23° C. The resulting fluorescence formed during the reaction time is monitored in a calibrated fluorometer.
# (§2) Experiments were conducted where varying concentrations of AgNO3 was added to an analysis substrate. Furthermore, the experiments where performed on dried or freeze dried materials where both intact and fragmented cells are to be expected to be present.
# (§3) Experiments analogous to those in example 1 were carried out, but instead of using non-specific inhibitors, the effect of different concentrations of DNJNAc on the NAHA activity in various biomass containing samples was investigated.
# [2] = tested on: NAHA activity from Ambrosia psilostachya (Rag weed pollen); assay: NAHA activity assay, rag weed pollen; type: biochemical; conditions: 30 min
# Protocol: as §1, §2, §3
# [3] = tested on: NAHA activity from Cat dander; assay: NAHA activity assay, cat dander; type: biochemical; conditions: 30 min
# Protocol: as §1, §2, §3
# [4] = tested on: NAHA activity from Human skin cells; assay: NAHA activity assay, human skin cells; type: biochemical; conditions: 30 min
# Protocol: as §1, §2, §3
# [5] = tested on: NAHA activity from Mugworth pollen; assay: NAHA activity assay, mugworth pollen; type: biochemical; conditions: 30 min
# Protocol: as §1, §2, §3
# [6] = tested on: NAHA activity from Lepidoglyphus destructor (Storage mite); assay: NAHA activity assay, storage mite; type: biochemical; conditions: for NAHA activity, control without Ag+ = 100%: Lepidoglyphus destructor (Storage mite), 30 min
# Protocol: as §1, §2, §3
# [7] = tested on: NAHA activity from Grass pollen; assay: NAHA activity assay, grass pollen; type: biochemical; conditions: for NAHA activity, control without Ag+ = 100%: Grass pollen, 30 min
# Protocol: as §1, §2, §3
# [8] = tested on: NAHA activity from Dermatophagoides pteronyssinus (Dust mite); assay: NAHA activity assay, dust mite; type: biochemical; conditions: Dermatophagoides pteronyssinus (Dust mite), 30 min
# Protocol: as §1, §2, §3
# [9] = tested on: NAHA activity from Birch pollen; assay: NAHA activity assay, birch pollen; type: biochemical; conditions: Birch pollen, 30 min
# Protocol: as §1, §2, §3
# [10] = tested on: NAHA activity from Aspergillus fumigatus freeze dried; assay: NAHA activity assay, Aspergillus fumigatus freeze dried; type: biochemical; conditions: Aspergillus fumigatus freeze dried
# Protocol: as §1, §2, §3
# [11] = tested on: NAHA activity from Aspergillus fumigatus fresh from cultivation; assay: NAHA activity assay, Aspergillus fumigatus fresh from cultivation; type: biochemical
# Protocol: as §1, §2
# [12] = tested on: NAHA activity from Acremonium spp.; assay: NAHA activity assay, Acremonium spp.; type: biochemical; conditions: Acremonium spp.
# Protocol: as §1, §2, §3
# [13] = tested on: NAHA activity from Penicillium crysogenum; assay: NAHA activity assay, Penicillium crysogenum; type: biochemical; conditions: Penicillium crysogenum
# Protocol: as §1, §2, §3
# [14] = tested on: NAHA activity from Cladosporium sphaerospermum; assay: NAHA activity assay, Cladosporium sphaerospermum; type: biochemical; conditions: Cladosporium sphaerospermum
# Protocol: as §1, §2, §3
# [15] = tested on: NAHA activity from Fusarium culmorum; assay: NAHA activity assay, Fusarium culmorum; type: biochemical
# Protocol: as §1, §2, §3
# [16] = tested on: NAHA activity from Mucor hiemalis; assay: NAHA activity assay, Mucor hiemalis; type: biochemical
# Protocol: as §1, §2, §3
# [17] = tested on: NAHA activity from Stachybotrys chartarum; assay: NAHA activity assay, Stachybotrys chartarum; type: biochemical
# Protocol: as §1, §2, §3
# [18] = tested on: NAHA activity from Aureobasidium pullulans; assay: NAHA activity assay, Aureobasidium pullulans; type: biochemical
# Protocol: as §1, §2, §3
# [19] = tested on: NAHA activity in Alternaria spp.; assay: NAHA activity pilot experiment, Alternaria spp.; type: biochemical; conditions: 10 μM
# Protocol: as §1
# [20] = tested on: NAHA activity in Cladosporium spp.; assay: NAHA activity pilot experiment, Cladosporium spp.; type: biochemical; conditions: 10 μM
# Protocol: as §1
# non-fungal NAHA activity = assay: NAHA activity assay, non-fungal sources overall; type: biochemical
# Protocol: as §1, §2, §3
# fungal NAHA activity = assay: NAHA activity assay, fungal sources overall; type: biochemical, fungi
# Protocol: as §1, §2, §3
# The experiments were performed with whole cell/organism cultures rather than purified enzyme, which is normally used in experiments on specific inhibition. It is plausible, though, that the surprising non-specific inhibition effect observed for Ag^+ and Hg^+ could be due to the inhibitors being delayed in physically contacting the NAHA enzyme in the fungi when compared to other types of biomass.
# [21] = tested on: NAHA activity from all sources; assay: NAHA activity assay, all sources; type: biochemical; conditions: 500 μM
# Protocol: as §1
smiles,measurement,setting,value
"O=[N+]([O-])[O-].[Ag+] [Ag+, AgNO3]","NAHA activity, control without Ag+ = 100%",[1]; Ag+ 10 μM,35%
same,"NAHA activity, control without Ag+ = 100%",[1]; Ag+ 25 μM,33%
same,"NAHA activity, control without Ag+ = 100%",[1]; Ag+ 100 μM,25%
same,"NAHA activity, control without Ag+ = 100%",[1]; Ag+ 400 μM,19%
same,"NAHA activity, control without Ag+ = 100%",[2]; Ag+ 10 μM,69%
same,"NAHA activity, control without Ag+ = 100%",[2]; Ag+ 25 μM,55%
same,"NAHA activity, control without Ag+ = 100%",[2]; Ag+ 100 μM,19%
same,"NAHA activity, control without Ag+ = 100%",[2]; Ag+ 400 μM,17%
same,"NAHA activity, control without Ag+ = 100%",[3]; Ag+ 10 μM,96%
same,"NAHA activity, control without Ag+ = 100%",[3]; Ag+ 25 μM,69%
same,"NAHA activity, control without Ag+ = 100%",[3]; Ag+ 100 μM,6%
same,"NAHA activity, control without Ag+ = 100%",[3]; Ag+ 400 μM,3%
same,"NAHA activity, control without Ag+ = 100%",[4]; Ag+ 10 μM,67%
same,"NAHA activity, control without Ag+ = 100%",[4]; Ag+ 25 μM,65%
same,"NAHA activity, control without Ag+ = 100%",[4]; Ag+ 100 μM,63%
same,"NAHA activity, control without Ag+ = 100%",[4]; Ag+ 400 μM,46%
same,"NAHA activity, control without Ag+ = 100%",[5]; Ag+ 10 μM,46%
same,"NAHA activity, control without Ag+ = 100%",[5]; Ag+ 25 μM,23%
same,"NAHA activity, control without Ag+ = 100%",[5]; Ag+ 100 μM,9%
same,"NAHA activity, control without Ag+ = 100%",[5]; Ag+ 400 μM,8%
same,"NAHA activity, control without Ag+ = 100%",[6]; Ag+ 10 μM,3%
same,"NAHA activity, control without Ag+ = 100%",[6]; Ag+ 25 μM,2%
same,"NAHA activity, control without Ag+ = 100%",[6]; Ag+ 100 μM,1%
same,"NAHA activity, control without Ag+ = 100%",[6]; Ag+ 400 μM,0%
same,inhibition of NAHA activity,"[6]; pilot experiment, 10 μM, mite Lepidoglyphus",almost total inhibition
same,"NAHA activity, control without Ag+ = 100%",[7]; Ag+ 10 μM,41%
same,"NAHA activity, control without Ag+ = 100%",[7]; Ag+ 25 μM,22%
same,"NAHA activity, control without Ag+ = 100%",[7]; Ag+ 100 μM,6%
same,"NAHA activity, control without Ag+ = 100%",[7]; Ag+ 400 μM,8%
same,inhibition of NAHA activity,"[7]; pilot experiment, 10 μM, grass pollen",almost total inhibition
same,"NAHA activity, control without Ag+ = 100%",[8]; Ag+ 10 μM,80%
same,"NAHA activity, control without Ag+ = 100%",[8]; Ag+ 25 μM,57%
same,"NAHA activity, control without Ag+ = 100%",[8]; Ag+ 100 μM,13%
same,"NAHA activity, control without Ag+ = 100%",[8]; Ag+ 400 μM,6%
same,"NAHA activity, control without Ag+ = 100%",[9]; Ag+ 10 μM,91%
same,"NAHA activity, control without Ag+ = 100%",[9]; Ag+ 25 μM,74%
same,"NAHA activity, control without Ag+ = 100%",[9]; Ag+ 100 μM,18%
same,"NAHA activity, control without Ag+ = 100%",[9]; Ag+ 400 μM,11%
same,"NAHA activity, 0 μM Ag+ = 100%",[10]; Ag+ 10 μM,104%
same,"NAHA activity, 0 μM Ag+ = 100%",[10]; Ag+ 25 μM,108%
same,"NAHA activity, 0 μM Ag+ = 100%",[10]; Ag+ 100 μM,98%
same,"NAHA activity, 0 μM Ag+ = 100%",[10]; Ag+ 400 μM,91%
same,"NAHA activity, 0 μM Ag+ = 100%",[11]; Ag+ 10 μM,91%
same,"NAHA activity, 0 μM Ag+ = 100%",[11]; Ag+ 25 μM,103%
same,"NAHA activity, 0 μM Ag+ = 100%",[11]; Ag+ 100 μM,95%
same,"NAHA activity, 0 μM Ag+ = 100%",[11]; Ag+ 400 μM,87%
same,"NAHA activity, 0 μM Ag+ = 100%",[12]; Ag+ 10 μM,175%
same,"NAHA activity, 0 μM Ag+ = 100%",[12]; Ag+ 25 μM,143%
same,"NAHA activity, 0 μM Ag+ = 100%",[12]; Ag+ 100 μM,159%
same,"NAHA activity, 0 μM Ag+ = 100%",[12]; Ag+ 400 μM,132%
same,effect on the NAHA activity,"[12]; pilot experiment, 10 μM",no significant effect
same,"NAHA activity, 0 μM Ag+ = 100%",[13]; Ag+ 10 μM,98%
same,"NAHA activity, 0 μM Ag+ = 100%",[13]; Ag+ 25 μM,106%
same,"NAHA activity, 0 μM Ag+ = 100%",[13]; Ag+ 100 μM,87%
same,"NAHA activity, 0 μM Ag+ = 100%",[13]; Ag+ 400 μM,65%
same,"NAHA activity, 0 μM Ag+ = 100%",[14]; Ag+ 10 μM,212%
same,"NAHA activity, 0 μM Ag+ = 100%",[14]; Ag+ 25 μM,154%
same,"NAHA activity, 0 μM Ag+ = 100%",[14]; Ag+ 100 μM,137%
same,"NAHA activity, 0 μM Ag+ = 100%",[14]; Ag+ 400 μM,167%
same,"NAHA activity, 0 μM Ag+ = 100%",[15]; Ag+ 10 μM,107%
same,"NAHA activity, 0 μM Ag+ = 100%",[15]; Ag+ 25 μM,107%
same,"NAHA activity, 0 μM Ag+ = 100%",[15]; Ag+ 100 μM,110%
same,"NAHA activity, 0 μM Ag+ = 100%",[15]; Ag+ 400 μM,102%
same,"NAHA activity, 0 μM Ag+ = 100%",[16]; Ag+ 10 μM,88%
same,"NAHA activity, 0 μM Ag+ = 100%",[16]; Ag+ 25 μM,63%
same,"NAHA activity, 0 μM Ag+ = 100%",[16]; Ag+ 100 μM,114%
same,"NAHA activity, 0 μM Ag+ = 100%",[16]; Ag+ 400 μM,57%
same,"NAHA activity, 0 μM Ag+ = 100%",[17]; Ag+ 10 μM,97%
same,"NAHA activity, 0 μM Ag+ = 100%",[17]; Ag+ 25 μM,91%
same,"NAHA activity, 0 μM Ag+ = 100%",[17]; Ag+ 100 μM,83%
same,"NAHA activity, 0 μM Ag+ = 100%",[17]; Ag+ 400 μM,93%
same,"NAHA activity, 0 μM Ag+ = 100%",[18]; Ag+ 10 μM,89%
same,"NAHA activity, 0 μM Ag+ = 100%",[18]; Ag+ 25 μM,91%
same,"NAHA activity, 0 μM Ag+ = 100%",[18]; Ag+ 100 μM,96%
same,"NAHA activity, 0 μM Ag+ = 100%",[18]; Ag+ 400 μM,76%
same,effect on the NAHA activity,[19],no significant effect
same,effect on the NAHA activity,[20],no significant effect
same,"reduction of the non-fungal NAHA activity, on average",non-fungal NAHA activity; 100 μM in the assay substrate,82%
same,"NAHA activity retained, average of non-fungal sources, of the control",non-fungal NAHA activity; 400 μM,13%
same,reduction of the fungal NAHA activity,fungal NAHA activity; 100 μM in the assay substrate,zero to very low reduction
same,fungal NAHA activity retained,fungal NAHA activity; 400 μM,a high percentage
same,inhibition of the fungal NAHA activity,fungal NAHA activity; inhibitor added to the fungal culture prior to the enzyme assay,complete inhibition
[Hg+] [Hg^+],inhibition of non-fungal NAHA activity,non-fungal NAHA activity; 10 μM,high inhibition
same,inhibition of fungal NAHA activity,fungal NAHA activity; 10 μM,less inhibition (but more than Ag^+)
[Cu+2] [Cu^2+],inhibiting effect on NAHA activity from all sources,[21],did not exhibit any or exhibited only very slight inhibiting effect
